Laboratory results from the NIST ThermoML archive (doi:10.1016/j.jct.2019.02.028).

Assay: xn = mol fraction of the nth substance listed
Details: Gas, Burnett expansion method

C=C(F)C(F)(F)F [2,3,3,3-tetrafluoro-1-propene] + FCF
Details	mass density [kg/m3]
298.75 K, 572.1 kPa, x2 = 0.119	28.04
298.79 K, 1055.5 kPa, x2 = 0.698	36.11
298.8 K, 475.09 kPa, x2 = 0.449	18
298.8 K, 476.95 kPa, x2 = 0.259	20.72
298.8 K, 518.4 kPa, x2 = 0.698	16.01
298.8 K, 684.19 kPa, x2 = 0.449	27.04
298.82 K, 748.46 kPa, x2 = 0.698	24.04
298.86 K, 487.12 kPa, x2 = 0.874	12.55
298.86 K, 1393.8 kPa, x2 = 0.874	42.51
298.87 K, 1004.6 kPa, x2 = 0.874	28.3
298.93 K, 704.35 kPa, x2 = 0.874	18.84
308.66 K, 1524.8 kPa, x2 = 0.698	54.21
308.68 K, 1108.2 kPa, x2 = 0.698	36.09
308.69 K, 597.54 kPa, x2 = 0.119	28.02
308.7 K, 493.92 kPa, x2 = 0.449	17.99
308.7 K, 496.45 kPa, x2 = 0.259	20.72
308.71 K, 538.99 kPa, x2 = 0.698	16
308.71 K, 714.14 kPa, x2 = 0.449	27.02
308.71 K, 842.28 kPa, x2 = 0.119	42.09
308.72 K, 712.34 kPa, x2 = 0.259	31.11
308.72 K, 997.47 kPa, x2 = 0.259	46.73
308.73 K, 780.62 kPa, x2 = 0.698	24.03
308.74 K, 1976.1 kPa, x2 = 0.874	63.81
308.76 K, 1011.1 kPa, x2 = 0.449	40.58
308.77 K, 1470.2 kPa, x2 = 0.874	42.48
308.78 K, 1051.3 kPa, x2 = 0.874	28.28
308.79 K, 506.01 kPa, x2 = 0.874	12.54
308.82 K, 733.43 kPa, x2 = 0.874	18.83
313.6 K, 1566.5 kPa, x2 = 0.698	54.19
313.64 K, 503.35 kPa, x2 = 0.449	17.98
313.64 K, 1134 kPa, x2 = 0.698	36.08
313.65 K, 610.01 kPa, x2 = 0.119	28.01
313.66 K, 506.36 kPa, x2 = 0.259	20.71
313.66 K, 728.88 kPa, x2 = 0.449	27.01
313.67 K, 796.71 kPa, x2 = 0.698	24.02
313.68 K, 549.32 kPa, x2 = 0.698	15.99
313.68 K, 727.83 kPa, x2 = 0.259	31.11
313.68 K, 862.42 kPa, x2 = 0.119	42.07
313.68 K, 1021.8 kPa, x2 = 0.259	46.73
313.7 K, 1507.4 kPa, x2 = 0.874	42.47
313.7 K, 2038.5 kPa, x2 = 0.874	63.79
313.72 K, 1034.8 kPa, x2 = 0.449	40.57
313.72 K, 1074 kPa, x2 = 0.874	28.28
313.74 K, 515.35 kPa, x2 = 0.874	12.53
313.79 K, 747.77 kPa, x2 = 0.874	18.83
318.62 K, 1609.8 kPa, x2 = 0.698	54.18
318.68 K, 1159.3 kPa, x2 = 0.698	36.07
318.7 K, 2100 kPa, x2 = 0.874	63.77
318.72 K, 512.99 kPa, x2 = 0.449	17.98
318.72 K, 882.63 kPa, x2 = 0.119	42.06
318.72 K, 1210.1 kPa, x2 = 0.119	63.25
318.73 K, 516.26 kPa, x2 = 0.259	20.71
318.73 K, 743.73 kPa, x2 = 0.449	27
318.73 K, 813.03 kPa, x2 = 0.698	24.02
318.73 K, 1463.2 kPa, x2 = 0.449	61.04
318.74 K, 559.65 kPa, x2 = 0.698	15.99
318.74 K, 743.48 kPa, x2 = 0.259	31.1
318.74 K, 1046.5 kPa, x2 = 0.259	46.72
318.74 K, 1058.5 kPa, x2 = 0.449	40.56
318.74 K, 1097.2 kPa, x2 = 0.874	28.27
318.74 K, 1544.9 kPa, x2 = 0.874	42.46
318.75 K, 622.85 kPa, x2 = 0.119	28
318.77 K, 762.25 kPa, x2 = 0.874	18.82
318.78 K, 525.03 kPa, x2 = 0.874	12.53
323.56 K, 1650.9 kPa, x2 = 0.698	54.16
323.62 K, 1184.6 kPa, x2 = 0.698	36.06
323.62 K, 2161.1 kPa, x2 = 0.874	63.75
323.67 K, 522.17 kPa, x2 = 0.449	17.97
323.67 K, 902.39 kPa, x2 = 0.119	42.05
323.67 K, 2803.5 kPa, x2 = 0.874	96.27
323.68 K, 525.72 kPa, x2 = 0.259	20.71
323.68 K, 569.78 kPa, x2 = 0.698	15.98
323.68 K, 758.4 kPa, x2 = 0.449	27
323.68 K, 828.96 kPa, x2 = 0.698	24.01
323.68 K, 1081.3 kPa, x2 = 0.449	40.55
323.69 K, 533.88 kPa, x2 = 0.874	12.53
323.69 K, 758.79 kPa, x2 = 0.259	31.1
323.69 K, 1070.4 kPa, x2 = 0.259	46.71
323.69 K, 1460 kPa, x2 = 0.259	70.1
323.69 K, 1502 kPa, x2 = 0.449	61.01
323.69 K, 2207.6 kPa, x2 = 0.698	81.35
323.7 K, 635.26 kPa, x2 = 0.119	27.99
323.7 K, 1243.5 kPa, x2 = 0.119	63.23
323.7 K, 1581.8 kPa, x2 = 0.874	42.45
323.71 K, 776.56 kPa, x2 = 0.874	18.81
323.73 K, 1120.2 kPa, x2 = 0.874	28.26
328.55 K, 1691.6 kPa, x2 = 0.698	54.15
328.58 K, 1209.7 kPa, x2 = 0.698	36.05
328.6 K, 543.23 kPa, x2 = 0.874	12.52
328.61 K, 531.32 kPa, x2 = 0.449	17.97
328.61 K, 772.98 kPa, x2 = 0.449	26.99
328.61 K, 1275.3 kPa, x2 = 0.119	63.21
328.62 K, 579.61 kPa, x2 = 0.698	15.98
328.62 K, 2220.5 kPa, x2 = 0.874	63.73
328.62 K, 2904.2 kPa, x2 = 0.874	96.19
328.63 K, 535.28 kPa, x2 = 0.259	20.7
328.63 K, 844.62 kPa, x2 = 0.698	24
328.63 K, 922.19 kPa, x2 = 0.119	42.04
328.63 K, 1094.6 kPa, x2 = 0.259	46.71
328.63 K, 1105.1 kPa, x2 = 0.449	40.54
328.63 K, 1499.1 kPa, x2 = 0.259	70.09
328.64 K, 647.48 kPa, x2 = 0.119	27.99
328.64 K, 773.73 kPa, x2 = 0.259	31.1
328.64 K, 1540.2 kPa, x2 = 0.449	60.98
328.64 K, 2275.8 kPa, x2 = 0.698	81.33
328.65 K, 1617.6 kPa, x2 = 0.874	42.43
328.66 K, 790.86 kPa, x2 = 0.874	18.81
328.67 K, 1142.6 kPa, x2 = 0.874	28.25
333.46 K, 1731.9 kPa, x2 = 0.698	54.13
333.56 K, 540.51 kPa, x2 = 0.449	17.96
333.57 K, 941.58 kPa, x2 = 0.119	42.02
333.57 K, 1235.3 kPa, x2 = 0.698	36.04
333.57 K, 2278.9 kPa, x2 = 0.874	63.71
333.57 K, 2342.7 kPa, x2 = 0.698	81.3
333.58 K, 544.62 kPa, x2 = 0.259	20.7
333.58 K, 1578 kPa, x2 = 0.449	60.96
333.58 K, 1734.6 kPa, x2 = 0.119	94.99
333.58 K, 2115 kPa, x2 = 0.449	91.6
333.58 K, 3002.9 kPa, x2 = 0.874	96.12
333.59 K, 659.59 kPa, x2 = 0.119	27.98
333.59 K, 787.46 kPa, x2 = 0.449	26.98
333.59 K, 788.83 kPa, x2 = 0.259	31.09
